In article PMC9646673, “A Novel, Orally Bioavailable, Small-Molecule Inhibitor of PCSK9 With Significant Cholesterol-Lowering Properties In Vivo” (Journal of Lipid Research, 2022):
“And” between values parts separate entries of the source, which are not always exact repeats. Equal entries are not always repeated. Where two headings read alike, the source gives them in different places.

Columns and labels:
[1] = Pharmacokinetic study, single dose PO/SC/IV; assay type: in vivo, female C57BL/6 mice; details: female, C57BL/6, mouse, plasma; for AUC(0-inf): read-out: AUC Infinity; for MRT inf: read-out: MRT Infinity
Protocol: Pharmacokinetic study protocols were reviewed and approved by the Institutional Animal Care and Use Committee of ChemPartner (Shanghai, China) under ethics A998HL0119. Female C57BL/6 mice aged 10–14 weeks (18–21 g) were purchased from Jihui Laboratory Animal Co. Ltd. (Shanghai, China) and were given ad libitum access to water and food throughout the in-life phase of the studies. […] At designated timepoints (t = 0.083, 0.25, 0.5, 1, 2, 4, 8, and 24 h), the animals were manually restrained, and 110 μl of blood per timepoint was collected into precooled EDTA-K2 tubes via the facial vein. […] Bioavailability was determined by comparing the plasma exposure levels (AUClast) of NYX-PCSK9i when given orally with plasma exposure levels obtained via the IV route.

APOE∗3-Leiden.CETP mice [2] = assay: First efficacy study (28 days): plasma lipids; assay type: in vivo, mouse
Source text: (§1) Animal experiments were approved by the governmental central committee on animal experiments (AVD5010020172064) and TNO’s animal welfare body (TNO-471 and TNO-482). Female APOE∗3-Leiden.CETP transgenic mice (11–16 weeks of age) were bred at the animal facility of TNO-InnoSer (Leiden, The Netherlands). Female animals were used in this study as they are more responsive to dietary cholesterol and fat than males and therefore typically develop atherosclerosis more rapidly than male APOE∗3-Leiden and APOE∗3-Leiden.CETP mice on cholesterol-containing diets ([33], [34]). Although measurements of atherosclerosis were not included as part of the present study, females were used with the prospect in mind that atherosclerosis studies will follow. The mice were housed under standard conditions that included 12 h light-dark cycles and access to a WTD and sterilized tap water ad libitum. Body weight, food intake, and clinical signs of behavior were monitored throughout the studies. […] Time t = 0 (weeks) was designated as the time at which mice were matched into groups after the 3-week run-in period in each efficacy study.
Treatment times were around 8:00 am and 4:00 pm each day. Throughout the in-life phase of the study, body weight and food intake (per cage) were measured at regular predetermined intervals while blood samples were collected every 7 days. The last gavage was administered on day 27. On day 28, the mice were sacrificed by CO2 asphyxiation, EDTA-plasma was obtained via heart puncture, and the liver was weighed and collected. Throughout the study, plasma cholesterol, triglycerides, HDL-C, lipoprotein profiles, PCSK9 expression levels, aspartate transaminase levels (AST), and alanine transaminase levels (ALT) were measured as described below.
(§2) In both studies, blood samples were collected at weekly intervals via tail vein sampling after fasting the mice for 4 h. Blood samples were centrifugated (4500 g at 4°C), and the plasma was collected for the following analyses. Total plasma cholesterol levels were determined using a Cholesterol CHOD-PAP kit according to the manufacturer’s instructions. Plasma HDL-C levels were determined by first precipitating apoB-containing lipids using PEG 6000/glycine and then utilizing the Cholesterol CHOD-PAP kit ([35]). Non-HDL-C levels were determined by subtracting HDL-C levels from total cholesterol levels ([32]). Group-pooled lipoprotein profiles were determined by FPLC analysis using an AKTApurifier 10 FPLC system (GE Healthcare, Chicago, IL). Plasma PCSK9 levels were determined using a Mouse PCSK9 Quantikine ELISA kit as per the manufacturer’s protocol. ALT and AST levels of group-pooled samples were measured using the Roche Reflotron Plus System (Mannheim, Germany).

hepatic LDLR protein = assay: Second efficacy study: hepatic LDLR protein (Western blotting); assay type: in vivo, mouse; details: day 35; NYX-PCSK9i 50 mg/kg BID PO, atorvastatin […]
[3] = test system: Hmgcr, Srebf2, Pcsk9, Ldlr, Mttp transcripts in liver tissue; assay: Hepatic gene transcription (qPCR), day 35; assay type: in vivo, mouse; details: 50 mg/kg BID PO, 5 weeks
Protocol: The transcript levels of select genes in the liver tissue of mice treated with either vehicle or NYX-PCSK9i were analyzed. RNA was isolated from liver tissue using an RNA STAT-60 kit as per the manufacturer’s protocol. RNA concentrations were determined using a NanoDrop 2000 spectrophotometer (Thermo Fisher Scientific, Rockford, IL), and up to 2 μg of RNA was used as a template for cDNA synthesis using a High-capacity RNA-to-cDNA kit according to the manufacturer’s instructions. Quantitative PCR was performed with fluorescein amidite-labeled TaqMan® Assay primers and TaqMan® Fast Universal PCR Master Mix using a QuantStudio 6 Flex Real-Time PCR system (Applied Biosystems). DNA was amplified by applying a standard cycle protocol with an annealing temperature of 60°C and 40 cycles of amplification. Differential transcriptional activity was calculated using the 2^–ΔΔCt method.

APOE∗3-Leiden.CETP mice [4] = assay: Second efficacy study: body weight, food intake, plasma ALT and AST; assay type: in vivo, mouse; design: Body weight (mean ± SD) / Food intake (mean ± SD): unit not given here; details: NYX-PCSK9i 50 mg/kg BID PO, atorvastatin […]; for Plasma ALT / Plasma AST: group-pooled
Source text: as §1, §2

[5] = 30 mg/kg BID PO, day 0 (baseline)
[6] = 50 mg/kg BID PO, day 0 (baseline)
[7] = 30 and 50 mg/kg BID PO, 28 days

Work on `Cc1cn(-c2cc(CN3CCC[C@H](N)C3)cc(NC(=O)c3cc(-c4ccccc4)ccn3)c2)cn1` [NYX-PCSK9i] yielded an AUC(0-t) ([1]; iv, 5 mg/kg, 5 mg/kg IV) of 2010 ng·h/mL, an AUC(0-t) ([1]; po, 50 mg/kg, 50 mg/kg PO) of ~8100 ng·h/mL and an AUC(0-t) ([1]; sc, 50 mg/kg, 50 mg/kg SC) of 25500 ng·h/mL. It also gave a clearance ([1]; 5 mg/kg IV) of 38.2 mL/min/kg, a half-life ([1]; 5 mg/kg IV) of 7.48 h and an AUC(0-inf) ([1]; 5 mg/kg IV) of 2190 ng·h/mL. For the same compound, the MRT inf ([1]; 5 mg/kg IV) was 6.42 h, the Vd ([1]; 5 mg/kg IV, read-out: Vss) was 14.7 L/kg and the half-life ([1]; 50 mg/kg PO) was 6.29 h. It also gave an AUC(0-inf) ([1]; 50 mg/kg PO) of 8700 ng·h/mL, an MRT inf ([1]; 50 mg/kg PO) of 7.07 h and a half-life ([1]; 50 mg/kg SC) of 9.11 h. It also gave an AUC(0-inf) ([1]; 50 mg/kg SC) of 30400 ng·h/mL, an MRT inf ([1]; 50 mg/kg SC) of 12.2 h and a bioavailability ([1]; AUClast 50 mg/kg PO vs 5 mg/kg IV) of 40%. For the same compound, the “Plasma HDL- cholesterol (mean ± SEM)” value (APOE∗3-Leiden.CETP mice [2]; [5]) was 0.9 ± 0.2 mmol/L, the “Plasma non-HDL- cholesterol (mean ± SEM)” value (APOE∗3-Leiden.CETP mice [2]; [5]) was 14.7 ± 1.6 mmol/L and the “Plasma triglycerides (mean ± SD)” value (APOE∗3-Leiden.CETP mice [2]; [5]) was 5.7 ± 2.2 mmol/L. The “Plasma triglycerides (mean ± SD)” value (APOE∗3-Leiden.CETP mice [2]; 30 mg/kg BID PO, day 7) was 7.0 ± 2.0 mmol/L, the “Plasma HDL- cholesterol (mean ± SEM)” value (APOE∗3-Leiden.CETP mice [2]; 30 mg/kg BID PO, day 14) was 0.4 ± 0.1 mmol/L and the “Plasma non-HDL- cholesterol (mean ± SEM)” value (APOE∗3-Leiden.CETP mice [2]; 30 mg/kg BID PO, day 14) was 13.1 ± 2.2 mmol/L. The “Plasma triglycerides (mean ± SD)” value (APOE∗3-Leiden.CETP mice [2]; 30 mg/kg BID PO, day 14) was 8.9 ± 1.8 mmol/L, the “Plasma triglycerides (mean ± SD)” value (APOE∗3-Leiden.CETP mice [2]; 30 mg/kg BID PO, day 21) was 6.1 ± 1.5 mmol/L and the “Plasma HDL- cholesterol (mean ± SEM)” value (APOE∗3-Leiden.CETP mice [2]; 30 mg/kg BID PO, day 28) was 0.8 ± 0.2 mmol/L. The “Plasma non-HDL- cholesterol (mean ± SEM)” value (APOE∗3-Leiden.CETP mice [2]; 30 mg/kg BID PO, day 28) was 10.5 ± 1.4 mmol/L, the “Plasma triglycerides (mean ± SD)” value (APOE∗3-Leiden.CETP mice [2]; 30 mg/kg BID PO, day 28) was 5.7 ± 1.9 mmol/L and the “Plasma HDL- cholesterol (mean ± SEM)” value (APOE∗3-Leiden.CETP mice [2]; [6]) was 0.8 ± 0.1 mmol/L. For the same compound, the “Plasma non-HDL- cholesterol (mean ± SEM)” value (APOE∗3-Leiden.CETP mice [2]; [6]) was 14.6 ± 2.5 mmol/L, the “Plasma triglycerides (mean ± SD)” value (APOE∗3-Leiden.CETP mice [2]; [6]) was 6.1 ± 1.9 mmol/L and the “Plasma triglycerides (mean ± SD)” value (APOE∗3-Leiden.CETP mice [2]; 50 mg/kg BID PO, day 7) was 5.9 ± 2.0 mmol/L. For the same compound, the “Plasma HDL- cholesterol (mean ± SEM)” value (APOE∗3-Leiden.CETP mice [2]; 50 mg/kg BID PO, day 14) was 0.6 ± 0.2 mmol/L, the “Plasma non-HDL- cholesterol (mean ± SEM)” value (APOE∗3-Leiden.CETP mice [2]; 50 mg/kg BID PO, day 14) was 9.8 ± 2.4 mmol/L and the “Plasma triglycerides (mean ± SD)” value (APOE∗3-Leiden.CETP mice [2]; 50 mg/kg BID PO, day 14) was 5.2 ± 1.7 mmol/L. For the same compound, the “Plasma triglycerides (mean ± SD)” value (APOE∗3-Leiden.CETP mice [2]; 50 mg/kg BID PO, day 21) was 4.2 ± 1.3 mmol/L, the “Plasma HDL- cholesterol (mean ± SEM)” value (APOE∗3-Leiden.CETP mice [2]; 50 mg/kg BID PO, day 28) was 0.9 ± 0.2 mmol/L and the “Plasma non-HDL- cholesterol (mean ± SEM)” value (APOE∗3-Leiden.CETP mice [2]; 50 mg/kg BID PO, day 28) was 6.8 ± 1.5 mmol/L. The “Plasma triglycerides (mean ± SD)” value (APOE∗3-Leiden.CETP mice [2]; 50 mg/kg BID PO, day 28) was 4.1 ± 1.2 mmol/L, the “reduction of total cholesterol in absolute terms” value (APOE∗3-Leiden.CETP mice [2]; 50 mg/kg BID PO, day 28) was 10.1 mM and 390 mg/dl and the HDL-C levels (APOE∗3-Leiden.CETP mice [2]; [7]) was “no consistent reduction in HDL-C levels”. For the same compound, the “Mean plasma triglyceride levels” value (APOE∗3-Leiden.CETP mice [2]; [7]) was “essentially unchanged”, the “increase in hepatic LDLR protein expression” value (hepatic LDLR protein) was 45% and the “increase in hepatic transcription of Pcsk9” value [3] was 61%. The “upregulation of hepatic Srebf2 transcript” value [3] was 33%, the “Body weight (mean ± SD)” value (APOE∗3-Leiden.CETP mice [4]; day 0 (baseline)) was 21.9 ± 1.7 and the “Food intake (mean ± SD)” value (APOE∗3-Leiden.CETP mice [4]; day 0 (baseline)) was 3.4 ± 0.3. For the same compound, the “Food intake (mean ± SD)” value (APOE∗3-Leiden.CETP mice [4]; day 7) was 3.5 ± 0.3, the “Body weight (mean ± SD)” value (APOE∗3-Leiden.CETP mice [4]; day 14) was 23.0 ± 2.4 and the “Food intake (mean ± SD)” value (APOE∗3-Leiden.CETP mice [4]; day 14) was 3.4 ± 0.0. The “Body weight (mean ± SD)” value (APOE∗3-Leiden.CETP mice [4]; day 21) was 22.4 ± 2.0, the “Food intake (mean ± SD)” value (APOE∗3-Leiden.CETP mice [4]; day 21) was 2.7 ± 0.0 and the “Body weight (mean ± SD)” value (APOE∗3-Leiden.CETP mice [4]; day 28) was 21.9 ± 2.1. For the same compound, the “Food intake (mean ± SD)” value (APOE∗3-Leiden.CETP mice [4]; day 28) was 2.7 ± 0.1, the “Food intake (mean ± SD)” value (APOE∗3-Leiden.CETP mice [4]; day 35) was 2.7 ± 0.3 and the “Plasma ALT” value (APOE∗3-Leiden.CETP mice [4]; day 0 (baseline)) was 91 U/L. For the same compound, the “Plasma AST” value (APOE∗3-Leiden.CETP mice [4]; day 0 (baseline)) was 91 U/L, the “Plasma ALT” value (APOE∗3-Leiden.CETP mice [4]; day 14) was 84 U/L and the “Plasma AST” value (APOE∗3-Leiden.CETP mice [4]; day 14) was 84 U/L. For the same compound, the “Plasma ALT” value (APOE∗3-Leiden.CETP mice [4]; day 28) was 36 U/L, the “Plasma AST” value (APOE∗3-Leiden.CETP mice [4]; day 28) was 36 U/L and the “Plasma ALT” value (APOE∗3-Leiden.CETP mice [4]; day 35) was 42 U/L. For the same compound, the “Plasma AST” value (APOE∗3-Leiden.CETP mice [4]; day 35) was 42 U/L.
